Test results published in PubChem BioAssay (NCI).
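96-well plates; 48 h exposure; 5 concentrations. Endpoints by linear interpolation between flanking doses. Not reached: highest tested concentration assigned. Abbreviation: GI50, concentration required for 50% inhibition of growth. TGI is the concentration that stops growth completely.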

Columns and labels:
Experiment in all cases: NCI tumour cell line growth inhibition, 48 h
DLD-1 colon = test system: DLD-1 colon
KM20L2 colon = test system: KM20L2 colon
LXFL 529 NSCLC = test system: LXFL 529 NSCLC
HOP-18 NSCLC = test system: HOP-18 NSCLC
MDA-N = test system: MDA-N
XF 498 CNS = test system: XF 498 CNS
DMS 114 small cell lung = test system: DMS 114 small cell lung
DMS 273 small cell lung = test system: DMS 273 small cell lung
RXF-631 renal = test system: RXF-631 renal

Row | SMILES | GI50 (DLD-1 colon) [µM] | TGI (DLD-1 colon) [µM] | GI50 (KM20L2 colon) [µM] | TGI (KM20L2 colon) [µM] | GI50 (LXFL 529 NSCLC) [µM] | TGI (LXFL 529 NSCLC) [µM] | GI50 (HOP-18 NSCLC) [µM] | TGI (HOP-18 NSCLC) [µM] | TGI (MDA-N) [µM] | TGI (XF 498 CNS) [µM] | TGI (DMS 114 small cell lung) [µM] | TGI (DMS 273 small cell lung) [µM] | TGI (RXF-631 renal) [µM] | GI50 (DMS 273 small cell lung) [µM] | GI50 (RXF-631 renal) [µM] | GI50 (XF 498 CNS) [µM] | GI50 (DMS 114 small cell lung) [µM]
1 | CC(=O)[CH-]C(=O)c1ccccc1.CC(=O)[CH-]C(=O)c1ccccc1.[O-]c1ccc2c(c1)OCO2.[O-]c1ccc2c(c1)OCO2.[Ti+4] | 38.3 | > 100 | 67.9 | > 100 | 19.3 | 49.9 | 37.7 | > 100 | – | – | – | – | – | – | – | – | –
2 | Nc1ccc(/C=C/c2ccc3cccnc3c2)cc1 | – | – | – | – | – | – | – | – | > 100 | – | – | – | – | – | – | – | –
3 | COC(=O)C1CCc2nnc(-c3ccccc3)n21 (stereo unspecified) | – | > 100 | – | > 100 | – | > 100 | – | – | – | > 100 | > 100 | – | – | – | – | – | –
4 | NC(=O)c1ccc(Cl)c([N+](=O)[O-])c1 | – | > 100 | – | > 100 | – | > 100 | – | > 100 | – | > 100 | > 100 | > 100 | – | – | – | – | –
5 | N#Cc1cccc(N2C(=O)C3C4C=CC(C3C2=O)C2C(=O)N(c3cccc(C#N)c3)C(=O)C42)c1 (stereo unspecified) | – | > 46.4 | – | > 100 | – | > 46.4 | – | > 100 | > 100 | 36.2 | 42 | > 31.6 | 42.9 | – | – | – | –
6 | C[C@H]1C=C2C(=O)O[C@H]3CC[C@@H](C1)[C@@]23O | – | 10.7 | – | 16.2 | – | 10.6 | – | 13.4 | – | – | 8.69 | – | – | – | – | – | –
7 | COc1ccc(-c2cc(=O)c3c(O)c(OC)c(OC)c(OC)c3o2)cc1 | – | – | – | – | – | – | – | – | 13 | – | – | – | – | – | – | – | –
8 | CO[C@@]1(c2ccccc2)O[C@H]2OCCC2[C@H]1c1ccc(Cl)cc1 (stereo partly specified) | – | > 100 | – | > 100 | – | > 100 | – | 99 | – | 69.3 | > 100 | > 100 | > 100 | – | – | – | –
9 | CCOC(=O)CN1C(=O)c2cc([N+](=O)[O-])cc3cc([N+](=O)[O-])cc(c23)C1=O | – | > 100 | – | > 100 | – | > 100 | – | > 100 | > 100 | > 100 | > 100 | > 100 | > 100 | – | – | – | –
10 | COCCNc1cncc(C(N)=O)c1 | – | – | – | – | – | – | – | – | > 100 | – | – | – | – | – | – | – | –
11 | C=C1C[C@@H]2C[C@@H](C)CC(O)[C@]2(CCCN)C1O (stereo partly specified) | – | > 100 | – | > 100 | – | > 100 | – | > 100 | – | > 100 | > 100 | > 100 | > 100 | – | – | – | –
12 | CC(=O)[O-].N.N.N.N.[Co+3].[O-][Cl+3]([O-])([O-])[O-].[OH3+] | > 100 | > 100 | > 100 | > 100 | > 100 | > 100 | – | – | – | – | – | > 100 | – | > 100 | – | – | –
13 | CC(=O)Oc1ccc2c(c1)C(=O)c1nc(C)c(C)nc1C2=O | – | > 100 | – | > 100 | – | > 100 | – | > 100 | – | > 100 | > 76.4 | > 100 | > 91.9 | – | – | – | –
14 | COC(=O)N/N=C(\C)CC(=O)Nc1ccc(Cl)cc1 | – | > 100 | – | > 100 | – | > 100 | – | – | – | > 100 | > 100 | – | > 100 | – | – | – | –
15 | c1ccc(OC2=NC3=S(S2)SC(Oc2ccccc2)=N3)cc1 | – | 35 | – | 45 | – | – | – | – | – | 32 | 41 | 85.6 | 52.1 | – | – | – | –
16 | C[CH2][Sn]([CH2]C)([O]C(=O)c1ccc(F)cc1)[O]C(=O)c1ccc(F)cc1 | 23.9 | > 65.8 | 72.6 | > 100 | 7.84 | 21.1 | 16.1 | 29.6 | – | 37.3 | 39.9 | > 100 | 32.3 | 55.6 | 17.5 | 20.2 | 18.8
17 | COc1ccc([C@@H]2OC(=O)C3C2C(=O)O[C@H]3c2ccc(OC)c(OC)c2)cc1OC (stereo partly specified) | – | – | – | > 100 | – | – | – | > 100 | – | > 100 | > 100 | > 100 | > 100 | – | – | – | –
18 | CC1=CCCC2C(C=O)(C1)CC(C)C2(CO)CC/C(=C/CO)CO (stereo unspecified) | – | > 100 | – | – | – | > 100 | – | > 100 | – | – | > 100 | > 100 | > 100 | – | – | – | –
19 | O=c1c2cc3ccccc3n2c(=O)c2cc3ccccc3n12 | – | > 100 | – | > 100 | – | > 100 | – | > 100 | – | > 100 | > 100 | > 100 | – | – | – | – | –
20 | C=C1C(=O)O[C@H]2C[C@@H]1C(=O)CC(C)CCCC(C)=CCC[C@@]2(C)O (stereo partly specified) | – | – | – | – | – | – | – | – | > 25 | – | – | – | – | – | – | – | –
